Assay [1] has as its target T1, CaV3.1 (Homo sapiens, UniProt O43497).
T1 construct: gene CACNA1G; α1 subunit
Briefly: whole-cell patch clamp, […] NMP-181, tsA-201 cells transiently expressing human CaV3.[…]. It counts as cell-based.

Assay [2] has as its target T2, CaV3.2 (Homo sapiens, UniProt O95180).
T2 construct: gene CACNA1H; α1 subunit
In words: whole-cell patch clamp, tsA-201 cells transiently expressing human CaV3.[…]. In kind it is cell-based.

For assay [3], the target named is T3, human CB2 receptor (Homo sapiens, UniProt P34972).
T3 construct: gene CNR2
In words: [3H]CP55940 radioligand competition, membranes of HEK293 cells expressing human CB2; low-efficacy agonist in GTPγ[…] assay ([…] at […]). In kind it is binding.

Molecules are shown by their SMILES.

T3 sequence (P34972 whole entry): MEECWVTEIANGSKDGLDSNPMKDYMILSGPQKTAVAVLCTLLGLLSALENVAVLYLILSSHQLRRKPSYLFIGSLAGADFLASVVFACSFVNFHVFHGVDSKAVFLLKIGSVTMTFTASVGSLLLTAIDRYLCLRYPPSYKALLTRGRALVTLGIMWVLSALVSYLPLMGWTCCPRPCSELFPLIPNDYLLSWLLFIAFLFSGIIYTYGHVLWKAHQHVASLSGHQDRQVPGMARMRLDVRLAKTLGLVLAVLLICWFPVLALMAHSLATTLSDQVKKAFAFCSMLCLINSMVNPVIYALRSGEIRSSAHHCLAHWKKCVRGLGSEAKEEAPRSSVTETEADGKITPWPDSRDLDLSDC
T2 sequence (O95180 whole entry): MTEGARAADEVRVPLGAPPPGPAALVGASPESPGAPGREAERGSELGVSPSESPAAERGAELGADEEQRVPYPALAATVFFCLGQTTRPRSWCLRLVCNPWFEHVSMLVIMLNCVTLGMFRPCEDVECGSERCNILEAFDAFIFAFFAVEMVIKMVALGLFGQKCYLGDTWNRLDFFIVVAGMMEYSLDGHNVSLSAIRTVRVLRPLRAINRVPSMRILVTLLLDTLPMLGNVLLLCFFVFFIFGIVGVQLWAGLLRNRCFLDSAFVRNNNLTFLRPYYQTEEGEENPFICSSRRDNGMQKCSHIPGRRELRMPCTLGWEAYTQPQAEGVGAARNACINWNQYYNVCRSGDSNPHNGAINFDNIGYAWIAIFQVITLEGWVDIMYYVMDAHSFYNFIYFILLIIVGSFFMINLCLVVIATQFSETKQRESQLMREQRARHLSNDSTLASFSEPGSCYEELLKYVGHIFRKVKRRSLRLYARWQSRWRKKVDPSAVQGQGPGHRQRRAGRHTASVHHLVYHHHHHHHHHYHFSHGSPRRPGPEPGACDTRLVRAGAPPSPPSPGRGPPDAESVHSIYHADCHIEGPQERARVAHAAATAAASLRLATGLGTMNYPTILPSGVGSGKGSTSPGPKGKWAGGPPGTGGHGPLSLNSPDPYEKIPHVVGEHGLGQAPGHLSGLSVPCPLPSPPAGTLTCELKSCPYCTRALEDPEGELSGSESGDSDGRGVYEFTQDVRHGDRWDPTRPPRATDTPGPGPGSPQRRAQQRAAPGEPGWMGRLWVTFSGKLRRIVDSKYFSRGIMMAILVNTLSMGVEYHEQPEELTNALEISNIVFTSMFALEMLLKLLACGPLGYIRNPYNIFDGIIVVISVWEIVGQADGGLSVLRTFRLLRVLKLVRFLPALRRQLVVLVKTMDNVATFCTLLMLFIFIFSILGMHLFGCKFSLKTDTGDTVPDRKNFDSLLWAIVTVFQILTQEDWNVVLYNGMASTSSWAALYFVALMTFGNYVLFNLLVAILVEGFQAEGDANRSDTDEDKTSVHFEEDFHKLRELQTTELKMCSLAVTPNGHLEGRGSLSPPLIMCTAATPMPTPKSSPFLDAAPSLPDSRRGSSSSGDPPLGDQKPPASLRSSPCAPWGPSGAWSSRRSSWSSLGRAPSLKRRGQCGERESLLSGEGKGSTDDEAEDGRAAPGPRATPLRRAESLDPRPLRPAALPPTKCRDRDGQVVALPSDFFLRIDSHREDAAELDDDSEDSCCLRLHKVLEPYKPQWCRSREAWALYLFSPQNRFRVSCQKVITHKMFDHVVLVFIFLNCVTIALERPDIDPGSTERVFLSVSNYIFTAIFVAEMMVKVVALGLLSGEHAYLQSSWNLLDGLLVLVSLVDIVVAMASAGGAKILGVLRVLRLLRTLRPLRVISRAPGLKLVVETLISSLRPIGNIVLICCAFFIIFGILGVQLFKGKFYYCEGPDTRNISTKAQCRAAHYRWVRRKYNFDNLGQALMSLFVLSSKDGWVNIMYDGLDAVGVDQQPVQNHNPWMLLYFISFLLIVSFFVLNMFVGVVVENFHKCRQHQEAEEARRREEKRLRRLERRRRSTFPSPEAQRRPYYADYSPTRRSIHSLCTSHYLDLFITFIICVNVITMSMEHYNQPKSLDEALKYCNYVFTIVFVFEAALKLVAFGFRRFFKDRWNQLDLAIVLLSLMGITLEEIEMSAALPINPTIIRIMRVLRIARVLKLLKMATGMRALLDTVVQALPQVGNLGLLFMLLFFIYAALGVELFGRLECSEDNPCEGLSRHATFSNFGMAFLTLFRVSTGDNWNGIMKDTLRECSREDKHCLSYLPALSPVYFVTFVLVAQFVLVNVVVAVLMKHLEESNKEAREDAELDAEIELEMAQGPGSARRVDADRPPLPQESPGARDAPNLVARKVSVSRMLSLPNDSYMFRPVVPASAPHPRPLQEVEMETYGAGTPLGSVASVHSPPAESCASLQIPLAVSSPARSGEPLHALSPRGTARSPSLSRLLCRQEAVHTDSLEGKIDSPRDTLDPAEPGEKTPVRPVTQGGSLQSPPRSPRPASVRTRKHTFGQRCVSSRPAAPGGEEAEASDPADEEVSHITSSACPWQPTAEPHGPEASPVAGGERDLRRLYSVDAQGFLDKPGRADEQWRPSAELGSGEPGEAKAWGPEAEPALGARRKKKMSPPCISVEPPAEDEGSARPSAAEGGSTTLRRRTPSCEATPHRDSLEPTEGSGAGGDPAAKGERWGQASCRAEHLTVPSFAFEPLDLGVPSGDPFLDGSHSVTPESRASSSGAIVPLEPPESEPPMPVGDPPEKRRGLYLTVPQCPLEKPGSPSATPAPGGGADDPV
T1 sequence (O43497 whole entry): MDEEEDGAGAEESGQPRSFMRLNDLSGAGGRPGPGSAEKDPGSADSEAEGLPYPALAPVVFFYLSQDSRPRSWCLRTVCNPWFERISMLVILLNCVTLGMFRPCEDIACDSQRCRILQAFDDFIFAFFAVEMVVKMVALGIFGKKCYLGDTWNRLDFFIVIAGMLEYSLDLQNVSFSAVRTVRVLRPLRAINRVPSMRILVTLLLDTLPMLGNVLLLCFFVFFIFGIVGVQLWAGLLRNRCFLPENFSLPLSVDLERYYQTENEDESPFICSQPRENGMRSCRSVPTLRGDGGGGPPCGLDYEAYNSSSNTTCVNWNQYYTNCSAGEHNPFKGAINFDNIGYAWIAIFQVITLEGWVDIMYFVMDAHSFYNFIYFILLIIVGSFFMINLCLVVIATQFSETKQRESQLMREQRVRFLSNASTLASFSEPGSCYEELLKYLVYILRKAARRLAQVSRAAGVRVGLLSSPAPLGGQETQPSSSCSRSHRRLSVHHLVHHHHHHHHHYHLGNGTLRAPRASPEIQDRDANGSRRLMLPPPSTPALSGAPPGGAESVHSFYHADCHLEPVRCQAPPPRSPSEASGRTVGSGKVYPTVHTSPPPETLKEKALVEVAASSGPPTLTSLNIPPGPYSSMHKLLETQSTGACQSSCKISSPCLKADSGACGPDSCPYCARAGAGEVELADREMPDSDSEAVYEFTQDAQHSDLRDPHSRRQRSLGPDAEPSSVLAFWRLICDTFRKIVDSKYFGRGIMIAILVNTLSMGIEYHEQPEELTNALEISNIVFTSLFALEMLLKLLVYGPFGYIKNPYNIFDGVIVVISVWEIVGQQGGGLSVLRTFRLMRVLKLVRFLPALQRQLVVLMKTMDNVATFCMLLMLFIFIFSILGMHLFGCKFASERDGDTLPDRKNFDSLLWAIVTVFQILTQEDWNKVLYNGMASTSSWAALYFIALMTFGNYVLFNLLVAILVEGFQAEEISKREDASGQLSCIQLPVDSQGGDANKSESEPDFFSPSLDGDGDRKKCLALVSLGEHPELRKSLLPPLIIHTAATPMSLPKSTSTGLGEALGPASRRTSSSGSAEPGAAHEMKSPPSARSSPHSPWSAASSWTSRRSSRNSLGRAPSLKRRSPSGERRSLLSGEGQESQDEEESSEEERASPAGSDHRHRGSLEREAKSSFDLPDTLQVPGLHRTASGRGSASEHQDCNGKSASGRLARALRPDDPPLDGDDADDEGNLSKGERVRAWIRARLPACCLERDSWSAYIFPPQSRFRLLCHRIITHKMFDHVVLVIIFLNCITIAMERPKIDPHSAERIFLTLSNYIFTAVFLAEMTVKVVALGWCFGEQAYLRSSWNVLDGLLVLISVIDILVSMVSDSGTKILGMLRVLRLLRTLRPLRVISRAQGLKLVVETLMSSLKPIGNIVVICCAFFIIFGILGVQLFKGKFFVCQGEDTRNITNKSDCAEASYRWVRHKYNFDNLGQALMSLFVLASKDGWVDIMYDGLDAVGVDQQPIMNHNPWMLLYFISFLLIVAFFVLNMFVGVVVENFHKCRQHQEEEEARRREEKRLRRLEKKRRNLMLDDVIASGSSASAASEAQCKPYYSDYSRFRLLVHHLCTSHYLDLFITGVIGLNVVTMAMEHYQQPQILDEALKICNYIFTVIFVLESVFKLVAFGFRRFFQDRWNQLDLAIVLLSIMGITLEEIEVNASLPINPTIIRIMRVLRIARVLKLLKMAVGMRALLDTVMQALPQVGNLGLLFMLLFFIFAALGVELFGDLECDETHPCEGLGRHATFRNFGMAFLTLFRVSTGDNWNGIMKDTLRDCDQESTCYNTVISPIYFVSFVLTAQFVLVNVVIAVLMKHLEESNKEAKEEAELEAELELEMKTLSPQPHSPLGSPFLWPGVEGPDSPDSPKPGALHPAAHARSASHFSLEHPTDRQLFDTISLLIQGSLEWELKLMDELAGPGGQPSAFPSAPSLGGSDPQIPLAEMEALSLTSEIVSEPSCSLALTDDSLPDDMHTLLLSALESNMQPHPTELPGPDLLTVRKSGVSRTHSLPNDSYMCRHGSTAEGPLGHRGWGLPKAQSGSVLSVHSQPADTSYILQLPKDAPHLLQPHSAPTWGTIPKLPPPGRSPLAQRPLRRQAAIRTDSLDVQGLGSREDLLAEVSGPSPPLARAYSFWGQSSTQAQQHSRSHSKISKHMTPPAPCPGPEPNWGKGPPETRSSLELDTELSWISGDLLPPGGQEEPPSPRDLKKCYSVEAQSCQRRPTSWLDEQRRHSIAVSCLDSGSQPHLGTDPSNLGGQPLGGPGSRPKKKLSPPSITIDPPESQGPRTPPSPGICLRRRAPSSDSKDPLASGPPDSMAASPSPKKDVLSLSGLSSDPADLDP

As for `CCCCCn1c2ccccc2c2cc(C(=O)OCCN(C)C)ccc21` [NMP-181], the “whole-cell patch clamp, 10 μM NMP-181, tsA-201 cells transiently expressing huma” value in assay [1] is reported as “the degree of inhibition was similar for all three CaV3 isoforms”. In assay [2], this compound had an IC50 of 4600 nM. The Ki in assay [3] was found to be 123 ± 28 nM.

The values above are taken from paper PMC3703287, “Analgesic effect of a mixed T-type channel inhibitor/CB2 receptor agonist” (Molecular Pain, 2013).
